Consider one molecule from ChEMBL document CHEMBL3751785, “Development and structural analysis of adenosine site binding tankyrase inhibitors” (Bioorg Med Chem Lett, 2016).

Experiment [1] deals with T1, Protein mono-ADP-ribosyltransferase PARP15 (Homo sapiens, UniProt Q460N3).
T1 sequence (Q460N3 whole entry): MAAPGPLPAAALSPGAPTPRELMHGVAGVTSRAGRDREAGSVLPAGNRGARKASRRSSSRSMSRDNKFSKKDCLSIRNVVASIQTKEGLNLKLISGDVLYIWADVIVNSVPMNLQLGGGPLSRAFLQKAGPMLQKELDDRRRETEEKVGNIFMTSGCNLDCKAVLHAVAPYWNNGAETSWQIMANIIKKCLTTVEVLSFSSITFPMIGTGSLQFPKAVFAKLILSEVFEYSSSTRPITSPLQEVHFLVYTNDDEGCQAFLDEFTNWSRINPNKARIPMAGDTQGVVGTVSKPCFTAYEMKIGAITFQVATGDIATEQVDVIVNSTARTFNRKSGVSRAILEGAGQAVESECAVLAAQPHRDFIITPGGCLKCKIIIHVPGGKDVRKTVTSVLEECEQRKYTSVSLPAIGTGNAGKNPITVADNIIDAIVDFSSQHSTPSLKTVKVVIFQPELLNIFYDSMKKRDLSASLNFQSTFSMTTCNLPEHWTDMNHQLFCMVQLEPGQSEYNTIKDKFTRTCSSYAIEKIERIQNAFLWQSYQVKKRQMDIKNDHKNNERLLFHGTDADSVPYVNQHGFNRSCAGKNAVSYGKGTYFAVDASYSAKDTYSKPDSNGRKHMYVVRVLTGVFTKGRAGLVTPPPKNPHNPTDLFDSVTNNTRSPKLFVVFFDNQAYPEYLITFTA
Briefly: Inhibition of human ARTD7 by fluorescence analysis.

Experiment [2] concerns the target Protein mono-ADP-ribosyltransferase PARP4 (Homo sapiens, UniProt Q9UKK3). Kind of experiment: Inhibition of human ARTD4 by fluorescence analysis.
In experiment [3] the target is T2, Protein mono-ADP-ribosyltransferase PARP10 (Homo sapiens, UniProt Q53GL7).
T2 sequence (Q53GL7 whole entry): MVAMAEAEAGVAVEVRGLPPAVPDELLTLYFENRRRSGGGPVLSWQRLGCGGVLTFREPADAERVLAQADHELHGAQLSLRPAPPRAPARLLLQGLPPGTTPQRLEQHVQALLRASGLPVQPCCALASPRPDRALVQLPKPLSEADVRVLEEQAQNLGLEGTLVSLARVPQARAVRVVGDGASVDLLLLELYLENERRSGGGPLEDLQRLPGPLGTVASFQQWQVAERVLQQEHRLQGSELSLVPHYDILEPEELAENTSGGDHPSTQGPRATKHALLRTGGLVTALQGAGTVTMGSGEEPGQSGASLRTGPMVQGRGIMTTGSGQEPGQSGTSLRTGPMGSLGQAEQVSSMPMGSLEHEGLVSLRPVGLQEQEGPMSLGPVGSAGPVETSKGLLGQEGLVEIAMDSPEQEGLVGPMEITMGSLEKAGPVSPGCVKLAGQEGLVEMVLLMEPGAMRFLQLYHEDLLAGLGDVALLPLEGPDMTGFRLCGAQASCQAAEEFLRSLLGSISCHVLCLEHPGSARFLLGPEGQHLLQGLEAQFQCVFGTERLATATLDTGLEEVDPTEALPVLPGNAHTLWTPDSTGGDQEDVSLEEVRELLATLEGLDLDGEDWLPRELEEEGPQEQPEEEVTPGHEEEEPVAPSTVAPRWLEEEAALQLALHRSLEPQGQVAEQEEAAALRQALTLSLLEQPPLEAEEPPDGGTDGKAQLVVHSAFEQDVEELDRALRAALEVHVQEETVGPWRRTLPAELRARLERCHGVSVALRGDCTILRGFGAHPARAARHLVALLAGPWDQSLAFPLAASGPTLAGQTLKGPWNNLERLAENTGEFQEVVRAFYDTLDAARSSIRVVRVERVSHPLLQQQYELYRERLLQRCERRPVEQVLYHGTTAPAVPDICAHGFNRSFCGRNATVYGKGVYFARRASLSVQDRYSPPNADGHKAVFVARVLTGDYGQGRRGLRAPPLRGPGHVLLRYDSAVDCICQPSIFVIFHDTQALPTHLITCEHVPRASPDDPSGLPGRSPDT
Briefly: Inhibition of human ARTD10 by fluorescence analysis.

Experiment [4] deals with T3, Poly [ADP-ribose] polymerase tankyrase-2 (Homo sapiens, UniProt Q9H2K2).
T3 sequence (Q9H2K2 whole entry): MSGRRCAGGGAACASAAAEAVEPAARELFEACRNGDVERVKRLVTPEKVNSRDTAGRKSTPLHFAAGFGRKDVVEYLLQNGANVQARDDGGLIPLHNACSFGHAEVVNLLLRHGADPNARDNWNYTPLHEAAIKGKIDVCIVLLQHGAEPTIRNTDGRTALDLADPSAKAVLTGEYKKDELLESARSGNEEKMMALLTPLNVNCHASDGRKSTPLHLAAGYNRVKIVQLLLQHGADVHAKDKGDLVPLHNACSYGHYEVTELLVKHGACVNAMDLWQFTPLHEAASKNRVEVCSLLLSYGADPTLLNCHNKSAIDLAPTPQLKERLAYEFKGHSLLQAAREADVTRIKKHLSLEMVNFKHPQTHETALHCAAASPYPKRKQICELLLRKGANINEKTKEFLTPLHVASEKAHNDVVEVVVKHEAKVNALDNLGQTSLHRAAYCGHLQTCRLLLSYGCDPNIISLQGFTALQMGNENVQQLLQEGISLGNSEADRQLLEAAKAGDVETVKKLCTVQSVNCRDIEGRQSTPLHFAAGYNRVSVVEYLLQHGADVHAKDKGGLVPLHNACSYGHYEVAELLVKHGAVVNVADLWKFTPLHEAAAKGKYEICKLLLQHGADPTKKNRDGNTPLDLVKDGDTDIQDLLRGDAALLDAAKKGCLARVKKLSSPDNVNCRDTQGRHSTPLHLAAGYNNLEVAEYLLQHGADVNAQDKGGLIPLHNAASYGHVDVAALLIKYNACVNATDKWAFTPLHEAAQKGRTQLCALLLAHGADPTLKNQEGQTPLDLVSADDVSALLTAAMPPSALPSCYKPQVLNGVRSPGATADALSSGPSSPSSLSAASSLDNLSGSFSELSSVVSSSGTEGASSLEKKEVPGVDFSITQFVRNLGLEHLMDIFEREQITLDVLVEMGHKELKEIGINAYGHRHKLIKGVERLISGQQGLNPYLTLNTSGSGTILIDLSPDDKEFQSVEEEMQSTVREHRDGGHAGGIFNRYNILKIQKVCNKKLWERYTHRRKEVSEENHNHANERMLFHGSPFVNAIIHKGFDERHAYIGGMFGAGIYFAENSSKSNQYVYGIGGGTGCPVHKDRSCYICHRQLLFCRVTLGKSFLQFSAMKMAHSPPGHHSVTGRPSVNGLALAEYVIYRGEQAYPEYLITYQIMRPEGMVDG
Briefly: Inhibition of human TNKS2 by fluorescence analysis.

pIC50: −log10 of the molar value.

Sequence of Protein mono-ADP-ribosyltransferase PARP4 (Q9UKK3 whole entry): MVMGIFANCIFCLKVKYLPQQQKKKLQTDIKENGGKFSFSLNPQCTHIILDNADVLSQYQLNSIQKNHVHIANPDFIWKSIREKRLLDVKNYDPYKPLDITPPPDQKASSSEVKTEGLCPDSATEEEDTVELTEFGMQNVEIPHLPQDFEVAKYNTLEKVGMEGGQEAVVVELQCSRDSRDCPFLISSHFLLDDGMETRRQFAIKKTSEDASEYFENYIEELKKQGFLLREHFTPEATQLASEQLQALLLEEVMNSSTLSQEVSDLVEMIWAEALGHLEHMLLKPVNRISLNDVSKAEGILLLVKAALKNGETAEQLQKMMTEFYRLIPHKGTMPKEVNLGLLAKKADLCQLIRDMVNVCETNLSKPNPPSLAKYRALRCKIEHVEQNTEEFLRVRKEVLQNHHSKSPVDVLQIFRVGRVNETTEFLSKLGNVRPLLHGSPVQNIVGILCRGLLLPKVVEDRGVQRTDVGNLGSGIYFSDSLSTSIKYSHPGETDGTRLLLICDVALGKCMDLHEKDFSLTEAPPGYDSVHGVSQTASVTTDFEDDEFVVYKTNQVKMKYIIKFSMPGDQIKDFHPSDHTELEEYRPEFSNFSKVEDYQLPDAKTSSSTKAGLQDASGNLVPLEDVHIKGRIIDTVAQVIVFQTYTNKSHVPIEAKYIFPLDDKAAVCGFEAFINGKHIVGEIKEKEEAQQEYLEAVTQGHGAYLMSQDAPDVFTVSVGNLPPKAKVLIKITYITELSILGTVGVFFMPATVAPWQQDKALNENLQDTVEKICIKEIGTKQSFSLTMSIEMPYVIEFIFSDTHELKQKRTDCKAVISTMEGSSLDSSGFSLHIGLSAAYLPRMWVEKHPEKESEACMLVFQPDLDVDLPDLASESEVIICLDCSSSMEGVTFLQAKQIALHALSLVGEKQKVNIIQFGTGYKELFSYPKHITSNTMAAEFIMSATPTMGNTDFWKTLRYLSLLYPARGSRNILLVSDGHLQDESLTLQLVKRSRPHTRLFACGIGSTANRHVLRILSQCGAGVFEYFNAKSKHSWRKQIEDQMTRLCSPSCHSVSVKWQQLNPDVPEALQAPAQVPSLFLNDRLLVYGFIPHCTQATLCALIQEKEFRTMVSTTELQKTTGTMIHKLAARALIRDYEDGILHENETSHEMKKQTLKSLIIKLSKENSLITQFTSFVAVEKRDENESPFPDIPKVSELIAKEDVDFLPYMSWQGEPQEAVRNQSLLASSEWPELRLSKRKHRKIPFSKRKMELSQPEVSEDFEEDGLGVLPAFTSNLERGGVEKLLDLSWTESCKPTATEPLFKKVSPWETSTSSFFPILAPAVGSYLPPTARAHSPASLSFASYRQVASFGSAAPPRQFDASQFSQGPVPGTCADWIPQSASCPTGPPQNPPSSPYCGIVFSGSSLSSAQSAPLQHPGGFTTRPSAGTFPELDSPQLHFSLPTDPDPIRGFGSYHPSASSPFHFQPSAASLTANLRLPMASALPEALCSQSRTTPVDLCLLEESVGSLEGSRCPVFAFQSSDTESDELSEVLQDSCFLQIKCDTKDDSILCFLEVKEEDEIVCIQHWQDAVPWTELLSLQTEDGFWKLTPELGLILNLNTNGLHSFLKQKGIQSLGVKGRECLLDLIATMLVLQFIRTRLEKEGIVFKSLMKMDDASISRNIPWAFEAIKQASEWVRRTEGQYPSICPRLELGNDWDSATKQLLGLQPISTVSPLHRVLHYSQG

As to `COc1ccc(C2(CNC(=O)c3ccc(NC(=O)c4ccco4)cc3Cl)CCOCC2)cc1`, the pIC50 was below 5.00 in experiment [1], below 4.00 in experiment [2], below 5.00 in experiment [3] and 5.67 in experiment [4] (read-out: IC50). Besides, the IC50 in experiment [4] (read-out: pIC50 (converted)) is 2140 nM.

What is called pIC50 is −log10 of the IC50, conventionally taken in molar units.
